Data reported in the kinase profiling compilation of Christmann-Franck et al. (2016).

Tests used:
Test in all cases: KINOMEscan competition binding
Settings in all cases: compound 10.0 µM
[1] = target: BRAF (human) (UniProt P15056)
[2] = target: PIK3CG (human) (UniProt P48736)
[3] = target: RPS6KA2 KD2 (human) (UniProt Q15349)
[4] = tested on: PIK3CA (human), P42336 [E545A]
[5] = target: ANKK1 (human) (UniProt Q8NFD2)
[6] = target: MAP3K13 (human) (UniProt O43283)
[7] = target: MYLK3 (human) (UniProt Q32MK0)
[8] = target: EPHA2 (human) (UniProt P29317)
[9] = target: JAK2 JH1 catalytic (human) (UniProt O60674)
Chain of JAK2 JH1 catalytic (human) (O60674 whole entry, looked up): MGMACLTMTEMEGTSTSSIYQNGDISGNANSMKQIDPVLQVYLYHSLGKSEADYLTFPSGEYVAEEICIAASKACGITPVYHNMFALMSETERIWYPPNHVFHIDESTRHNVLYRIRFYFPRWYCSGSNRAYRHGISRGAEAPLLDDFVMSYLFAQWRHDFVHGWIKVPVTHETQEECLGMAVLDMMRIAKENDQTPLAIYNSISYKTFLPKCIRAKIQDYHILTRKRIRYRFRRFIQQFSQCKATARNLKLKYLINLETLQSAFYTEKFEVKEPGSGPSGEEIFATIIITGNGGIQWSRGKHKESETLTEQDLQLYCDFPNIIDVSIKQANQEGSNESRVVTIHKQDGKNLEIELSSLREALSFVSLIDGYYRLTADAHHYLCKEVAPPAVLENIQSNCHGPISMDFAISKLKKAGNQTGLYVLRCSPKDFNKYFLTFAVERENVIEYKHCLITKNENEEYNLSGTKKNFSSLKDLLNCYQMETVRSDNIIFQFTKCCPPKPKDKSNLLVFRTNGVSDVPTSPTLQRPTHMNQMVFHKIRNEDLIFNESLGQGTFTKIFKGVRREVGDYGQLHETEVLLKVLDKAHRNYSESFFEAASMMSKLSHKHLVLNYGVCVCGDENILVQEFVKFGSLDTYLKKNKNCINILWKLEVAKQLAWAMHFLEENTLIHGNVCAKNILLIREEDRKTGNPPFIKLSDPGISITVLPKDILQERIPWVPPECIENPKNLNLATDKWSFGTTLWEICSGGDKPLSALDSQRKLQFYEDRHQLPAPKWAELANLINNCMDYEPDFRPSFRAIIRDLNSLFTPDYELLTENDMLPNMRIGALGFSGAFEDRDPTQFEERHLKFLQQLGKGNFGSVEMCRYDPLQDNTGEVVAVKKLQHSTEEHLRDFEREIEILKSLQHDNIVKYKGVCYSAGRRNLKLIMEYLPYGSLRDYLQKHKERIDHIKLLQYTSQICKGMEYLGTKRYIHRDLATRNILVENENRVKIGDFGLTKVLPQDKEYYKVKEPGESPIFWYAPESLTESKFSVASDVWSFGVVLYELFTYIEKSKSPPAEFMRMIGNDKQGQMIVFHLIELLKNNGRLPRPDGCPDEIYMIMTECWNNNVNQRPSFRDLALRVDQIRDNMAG

[10] = tested on: RET (human), P07949 [V804L]
[11] = target: STK32C (human) (UniProt Q86UX6)
[12] = target: MYLK (human) (UniProt Q15746)
[13] = tested on: MET (human), P08581 [M1250T]
[14] = target: KIT (human) (UniProt P10721)
[15] = target: ACVR1B (human) (UniProt P36896)
[16] = target: CSNK1A1L (human) (UniProt Q8N752)
Chain of CSNK1A1L (human) (Q8N752 whole entry, looked up): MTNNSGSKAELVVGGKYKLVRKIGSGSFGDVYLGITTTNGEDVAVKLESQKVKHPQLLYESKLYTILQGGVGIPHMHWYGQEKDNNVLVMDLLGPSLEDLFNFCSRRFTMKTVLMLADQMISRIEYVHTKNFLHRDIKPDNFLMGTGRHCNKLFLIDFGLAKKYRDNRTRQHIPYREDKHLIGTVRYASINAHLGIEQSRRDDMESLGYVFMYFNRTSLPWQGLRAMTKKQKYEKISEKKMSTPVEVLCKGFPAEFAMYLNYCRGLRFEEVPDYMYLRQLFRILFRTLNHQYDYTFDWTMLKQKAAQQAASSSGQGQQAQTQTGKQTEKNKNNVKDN

[17] = target: PDPK1 (human) (UniProt O15530)
[18] = target: EPHA8 (human) (UniProt P29322)
[19] = target: PAK6 (human) (UniProt Q9NQU5)
[20] = target: RPS6KA4 KD1 (human) (UniProt O75676)
Chain of RPS6KA4 KD1 (human) (O75676 whole entry, looked up): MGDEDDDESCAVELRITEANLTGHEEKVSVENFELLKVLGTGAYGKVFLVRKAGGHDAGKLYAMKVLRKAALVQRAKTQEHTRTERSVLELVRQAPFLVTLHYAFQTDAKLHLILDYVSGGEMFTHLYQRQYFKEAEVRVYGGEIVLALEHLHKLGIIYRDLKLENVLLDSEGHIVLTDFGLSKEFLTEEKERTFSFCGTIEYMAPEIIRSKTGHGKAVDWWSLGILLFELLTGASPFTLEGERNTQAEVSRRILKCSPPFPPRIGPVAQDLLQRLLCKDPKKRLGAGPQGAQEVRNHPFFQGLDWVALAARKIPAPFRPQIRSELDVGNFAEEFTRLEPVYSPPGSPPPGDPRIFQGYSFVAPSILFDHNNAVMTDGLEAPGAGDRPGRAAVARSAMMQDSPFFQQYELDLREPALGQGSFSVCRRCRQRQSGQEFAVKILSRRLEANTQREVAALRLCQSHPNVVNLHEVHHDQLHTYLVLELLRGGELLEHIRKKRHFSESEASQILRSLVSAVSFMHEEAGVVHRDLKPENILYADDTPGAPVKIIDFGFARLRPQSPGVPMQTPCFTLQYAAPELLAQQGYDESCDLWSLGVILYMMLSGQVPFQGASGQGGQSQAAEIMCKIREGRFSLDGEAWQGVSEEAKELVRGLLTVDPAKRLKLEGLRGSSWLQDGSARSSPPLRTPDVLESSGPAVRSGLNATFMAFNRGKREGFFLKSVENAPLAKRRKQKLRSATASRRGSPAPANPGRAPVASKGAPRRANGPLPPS

[21] = target: PAK2 (human) (UniProt Q13177)
Chain of PAK2 (human) (Q13177 whole entry, looked up): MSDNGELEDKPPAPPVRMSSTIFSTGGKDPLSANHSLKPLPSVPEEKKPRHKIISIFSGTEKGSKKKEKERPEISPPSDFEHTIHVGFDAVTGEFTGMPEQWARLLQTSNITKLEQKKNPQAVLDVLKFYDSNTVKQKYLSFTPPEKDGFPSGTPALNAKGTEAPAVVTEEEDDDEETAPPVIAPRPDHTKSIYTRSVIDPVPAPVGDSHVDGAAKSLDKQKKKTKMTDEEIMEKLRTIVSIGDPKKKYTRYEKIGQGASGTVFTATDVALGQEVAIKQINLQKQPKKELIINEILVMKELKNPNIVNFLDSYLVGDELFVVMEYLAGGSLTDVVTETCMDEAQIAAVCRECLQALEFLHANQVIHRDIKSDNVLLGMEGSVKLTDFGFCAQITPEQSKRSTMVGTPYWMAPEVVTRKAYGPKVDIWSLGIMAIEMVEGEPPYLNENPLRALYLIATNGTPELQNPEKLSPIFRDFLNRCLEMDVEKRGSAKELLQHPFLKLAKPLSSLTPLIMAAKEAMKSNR

[22] = target: CDK19 (human) (UniProt Q9BWU1)
[23] = target: MAP3K1 (human) (UniProt Q13233)
[24] = target: HCK (human) (UniProt P08631)
Chain of HCK (human) (P08631 whole entry, looked up): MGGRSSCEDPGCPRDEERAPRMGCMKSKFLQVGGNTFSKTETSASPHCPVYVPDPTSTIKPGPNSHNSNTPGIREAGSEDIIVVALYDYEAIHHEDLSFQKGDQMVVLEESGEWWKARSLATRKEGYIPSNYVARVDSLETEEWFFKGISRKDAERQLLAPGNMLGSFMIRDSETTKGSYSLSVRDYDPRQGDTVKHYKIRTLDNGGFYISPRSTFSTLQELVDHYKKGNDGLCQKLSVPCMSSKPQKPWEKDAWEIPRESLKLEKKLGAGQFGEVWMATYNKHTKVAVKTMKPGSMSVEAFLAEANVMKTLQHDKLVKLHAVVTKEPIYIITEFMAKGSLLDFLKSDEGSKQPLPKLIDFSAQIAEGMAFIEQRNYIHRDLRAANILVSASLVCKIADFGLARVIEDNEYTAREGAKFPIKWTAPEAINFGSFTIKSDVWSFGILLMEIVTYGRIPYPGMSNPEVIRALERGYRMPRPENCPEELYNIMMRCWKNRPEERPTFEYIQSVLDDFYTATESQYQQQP

[25] = target: ALK (human) (UniProt Q9UM73)
[26] = target: ZAP70 (human) (UniProt P43403)
Chain of ZAP70 (human) (P43403 whole entry, looked up): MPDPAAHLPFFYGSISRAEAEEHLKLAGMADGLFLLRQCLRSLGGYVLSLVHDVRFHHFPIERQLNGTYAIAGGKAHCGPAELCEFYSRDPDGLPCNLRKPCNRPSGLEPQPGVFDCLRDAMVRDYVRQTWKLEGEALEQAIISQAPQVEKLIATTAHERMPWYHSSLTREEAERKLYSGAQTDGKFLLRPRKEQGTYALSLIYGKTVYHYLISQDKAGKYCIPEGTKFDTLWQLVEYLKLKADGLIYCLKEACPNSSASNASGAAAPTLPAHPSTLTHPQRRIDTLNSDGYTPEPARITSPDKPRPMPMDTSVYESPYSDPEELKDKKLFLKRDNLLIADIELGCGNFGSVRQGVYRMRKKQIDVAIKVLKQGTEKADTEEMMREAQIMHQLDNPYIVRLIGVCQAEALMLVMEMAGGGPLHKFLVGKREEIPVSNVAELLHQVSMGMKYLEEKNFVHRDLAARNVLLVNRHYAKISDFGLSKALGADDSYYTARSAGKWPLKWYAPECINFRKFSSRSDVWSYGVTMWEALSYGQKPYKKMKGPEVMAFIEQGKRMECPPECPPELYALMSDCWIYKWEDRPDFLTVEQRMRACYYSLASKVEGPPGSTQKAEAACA

[27] = target: CDK17 (human) (UniProt Q00537)
[28] = target: TEK (human) (UniProt Q02763)
[29] = target: CAMK2A (human) (UniProt Q9UQM7)
[30] = tested on: PIK3CA (human), P42336 [E542K]
[31] = target: PIM1 (human) (UniProt P11309)
Chain of PIM1 (human) (P11309 whole entry, looked up): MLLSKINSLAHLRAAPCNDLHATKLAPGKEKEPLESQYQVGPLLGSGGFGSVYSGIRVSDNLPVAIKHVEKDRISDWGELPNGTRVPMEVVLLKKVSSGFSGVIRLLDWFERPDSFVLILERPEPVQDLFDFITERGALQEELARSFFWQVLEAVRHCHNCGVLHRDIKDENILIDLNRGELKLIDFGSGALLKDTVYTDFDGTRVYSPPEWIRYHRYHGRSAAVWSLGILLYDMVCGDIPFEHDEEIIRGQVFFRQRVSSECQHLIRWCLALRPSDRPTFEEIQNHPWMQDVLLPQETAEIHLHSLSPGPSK

[32] = target: PRKCD (human) (UniProt Q05655)
[33] = target: NIM1 (human) (UniProt Q8IY84)
[34] = target: DCLK2 (human) (UniProt Q8N568)
[35] = tested on: PIK3CA (human), P42336 [Q546K]
[36] = target: NEK9 (human) (UniProt Q8TD19)
[37] = target: CSNK1G2 (human) (UniProt P78368)
[38] = target: BTK (human) (UniProt Q06187)
[39] = target: DYRK1B (human) (UniProt Q9Y463)

Chain of ANKK1 (human) (Q8NFD2 whole entry, looked up): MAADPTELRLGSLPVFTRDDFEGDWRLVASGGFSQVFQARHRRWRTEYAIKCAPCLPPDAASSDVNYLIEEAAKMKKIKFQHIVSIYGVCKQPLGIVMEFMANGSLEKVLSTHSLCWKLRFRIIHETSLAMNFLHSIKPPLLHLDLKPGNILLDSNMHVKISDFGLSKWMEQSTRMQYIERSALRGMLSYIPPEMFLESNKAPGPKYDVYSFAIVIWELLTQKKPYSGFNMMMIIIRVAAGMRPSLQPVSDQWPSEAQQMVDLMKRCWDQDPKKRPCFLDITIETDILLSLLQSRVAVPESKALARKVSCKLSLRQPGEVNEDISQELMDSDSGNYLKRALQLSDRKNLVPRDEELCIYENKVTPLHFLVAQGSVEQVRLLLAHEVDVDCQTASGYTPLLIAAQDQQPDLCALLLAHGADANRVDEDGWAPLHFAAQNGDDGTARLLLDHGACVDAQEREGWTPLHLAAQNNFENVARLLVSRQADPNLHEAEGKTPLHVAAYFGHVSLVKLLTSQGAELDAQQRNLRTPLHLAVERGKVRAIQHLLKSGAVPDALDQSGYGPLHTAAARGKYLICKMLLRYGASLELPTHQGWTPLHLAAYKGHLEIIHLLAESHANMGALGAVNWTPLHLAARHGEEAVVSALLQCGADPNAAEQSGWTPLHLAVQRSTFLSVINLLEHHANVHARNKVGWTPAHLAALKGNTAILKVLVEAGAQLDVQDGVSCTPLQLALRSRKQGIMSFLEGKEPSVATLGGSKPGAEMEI

Question: `COc1ccc(CNC(=O)Nc2ncc([N+](=O)[O-])s2)cc1` was tested. Which kinase still bound, per cent of control [1] did it give?
Answer: 57%

Question: And the kinase still bound, per cent of control [2]?
Answer: 100%

Question: What about the kinase still bound, per cent of control [3] of the same compound?
Answer: 83%

Question: And the kinase still bound, per cent of control [4]?
Answer: 94%

Question: And the kinase still bound, per cent of control [5]?
Answer: 100%

Question: And the kinase still bound, per cent of control [6]?
Answer: 70%

Question: And the kinase still bound, per cent of control [7]?
Answer: 52%

Question: What about the kinase still bound, per cent of control [8] of the same compound?
Answer: 95%

Question: And the kinase still bound, per cent of control [9]?
Answer: 100%

Question: What about the kinase still bound, per cent of control [10] of the same compound?
Answer: 100%

Question: What about the kinase still bound, per cent of control [11] of the same compound?
Answer: 76%

Question: What about the kinase still bound, per cent of control [12] of the same compound?
Answer: 100%

Question: What about the kinase still bound, per cent of control [13] of the same compound?
Answer: 93%

Question: And the kinase still bound, per cent of control [14]?
Answer: 100%

Question: And the kinase still bound, per cent of control [15]?
Answer: 86%

Question: And the kinase still bound, per cent of control [16]?
Answer: 99%

Question: And the kinase still bound, per cent of control [17]?
Answer: 78%

Question: What about the kinase still bound, per cent of control [18] of the same compound?
Answer: 100%

Question: And the kinase still bound, per cent of control [19]?
Answer: 100%

Question: And the kinase still bound, per cent of control [20]?
Answer: 98%

Question: And the kinase still bound, per cent of control [21]?
Answer: 87%

Question: And the kinase still bound, per cent of control [22]?
Answer: 100%

Question: What about the kinase still bound, per cent of control [23] of the same compound?
Answer: 100%

Question: And the kinase still bound, per cent of control [24]?
Answer: 100%

Question: And the kinase still bound, per cent of control [25]?
Answer: 100%

Question: And the kinase still bound, per cent of control [26]?
Answer: 100%

Question: What about the kinase still bound, per cent of control [27] of the same compound?
Answer: 79%

Question: And the kinase still bound, per cent of control [28]?
Answer: 78%

Question: And the kinase still bound, per cent of control [29]?
Answer: 100%

Question: What about the kinase still bound, per cent of control [30] of the same compound?
Answer: 100%

Question: What about the kinase still bound, per cent of control [31] of the same compound?
Answer: 75%

Question: And the kinase still bound, per cent of control [32]?
Answer: 100%

Question: What about the kinase still bound, per cent of control [33] of the same compound?
Answer: 100%

Question: What about the kinase still bound, per cent of control [34] of the same compound?
Answer: 100%

Question: And the kinase still bound, per cent of control [35]?
Answer: 90%

Question: What about the kinase still bound, per cent of control [36] of the same compound?
Answer: 100%

Question: And the kinase still bound, per cent of control [37]?
Answer: 82%

Question: What about the kinase still bound, per cent of control [38] of the same compound?
Answer: 100%

Question: What about the kinase still bound, per cent of control [39] of the same compound?
Answer: 100%
